Reference: patent US8460646B2, “Methods and compositions for treating mammalian nerve tissue injuries” (Purdue Research Foundation, priority 1998, dated 2013)

Key:
[1] = test system: crushed spinal cord ventral white matter strip; experiment: Potassium channel blockade (4-AP) as adjunct to PEG-mediated recovery of CAP conduction; set-up: species or system guinea pig; conditions: for Enhancement of recovered CAP by 4-AP, group data: 5 cords; for Enhancement of recovered CAP by 4-AP: reversible
Procedure: The above-described technique should be considered as a basic one, from which testing of several variations described below was performed. For example, tests were made of the response of “recovering” axons to the additional application of the fast potassium channel blocker, 4 aminopyridine (4-AP). In this trial, 5 separate cords were treated with an application of PEG as described above and compared to 5 control cords. One hour after compression, 100 pM 4-AP (in Krebs' solution) was applied for 15 minutes and then washed free with normal Krebs' solution as described above.
Spinal cords were crushed, isolated and treated with PEG as described in Example 1. Analysis was also performed in the double sucrose recording chamber as described in Example 1.

[2] = test system: crushed spinal cord ventral white matter strip; conditions: in vitro; Shi and Borgens 1999; cited from earlier work

Compound: Nc1ccncc1 [4-AP, 4-aminopyridine]
- Enhancement of recovered CAP by 4-AP, group data ([1]; PEG-treated (experimental) group): about 70%
- Enhancement of recovered CAP by 4-AP ([1]; PEG-treated cord, 4-AP at 1 hour post PEG application, individual test): about 70%
- Enhancement of recovered CAP by 4-AP, group data ([1]; control group (crushed, no PEG)): about 40%
- Enhancement of recovered CAP by 4-AP ([1]; crushed cord untreated with PEG, 100 pM 4-AP at 1 hour post injury, single test): about 40%
- Magnitude of the recovered CAP after local 4-aminopyridine in PEG-repaired cord [2]: nearly doubles
